Measurements taken from article PMC5086919, “Antileukemic Scalarane Sesterterpenoids and Meroditerpenoid from Carteriospongia (Phyllospongia) sp., Induce Apoptosis via Dual Inhibitory Effects on Topoisomerase II and Hsp90” (Scientific Reports, 2016).
≈ marks a conversion by molar mass, not a printed value. Read-outs that look alike come from different tables or passages of the source.

Legend:
Molt 4 cells [1] = experiment: Annexin V/PI apoptosis assay; assay type: cell-based, human; settings: 0, 0.0625, 0.125 and 0.25 μg/mL, 24 h, annexin-V/PI
Protocol: The externalization of phosphatidylserine (PS) and membrane integrity were quantified using an annexin V- FITC staining kit[72]. In brief, 10^6 cells were grown in 35 mm diameter plates and were labeled with annexin V-FITC (10 μg/mL) and PI (20 μg/mL) prior to harvesting. After labeling, all plates were washed with a binding buffer and harvested. Cells were resuspended in the binding buffer at a concentration of 2 × 10^5 cells/mL before analysis by flow cytometer FACS-Calibur (Becton-Dickinson, San Jose, CA, USA) and CellQuest software. Approximately 10,000 cells were counted for each determination.

Cal-27 cells = experiment: MTT antiproliferative assay, oral Cal-27 cells; settings: Homo sapiens, CAL-27, 72 h, read-out: IC50, cytotoxicity, Oral Cal-27
Source text: (§2) Several cancer cell lines including leukemia K562, Molt 4, and HL 60 cells, prostate cancer LNCaP cells, colon cancer DLD-1 cells and breast cancer T-47D cells were used to evaluate the antiproliferative activity.
(§3) The cell lines were obtained from the American Type Culture Collection (ATCC, Manassas, VA, USA). […] Dimethyl sulfoxide (DMSO), 3-(4,5-dimethylthiazol-2-yl)-2,5-diphenyl-tetrazolium bromide (MTT) and all other chemicals were purchased from Sigma-Aldrich (St. Louis, MO, USA).

T-47D cells = experiment: MTT antiproliferative assay, breast cancer T-47D cells; settings: Homo sapiens, T47D, 72 h, read-out: IC50, cytotoxicity, Breast T-47D
Source text: as §2, §3

Sup-T1 cells = experiment: MTT antiproliferative assay, lymphoma Sup-T1 cells; settings: Homo sapiens, SUP-T1, 72 h, read-out: IC50, cytotoxicity, Lymphoma Sup-T1
human topoisomerase II = target: T1, human topoisomerase II (Homo sapiens, UniProt P11388); experiment: Cell-free topoisomerase II DNA relaxation/cleavage assay with supercoiled pHOT1 plasmid DNA; assay type: biochemical; settings: for inhibition at 0.08 µg/mL: 0.08 μg/mL; for inhibition at 0.08 µg/mL / inhibition at 0.312 µg/mL / inhibition at 1.25 µg/mL / inhibition at 5 µg/mL / inhibition at 20 µg/mL: compared with control supercoiled DNA; for inhibition at 0.312 µg/mL: 0.312 μg/mL; for inhibition at 1.25 µg/mL: 1.25 μg/mL; for inhibition at 5 µg/mL: 5 μg/mL; for inhibition at 20 µg/mL: 20 μg/mL
T1 construct: purchased Topogen
T1 sequence (P11388 whole entry): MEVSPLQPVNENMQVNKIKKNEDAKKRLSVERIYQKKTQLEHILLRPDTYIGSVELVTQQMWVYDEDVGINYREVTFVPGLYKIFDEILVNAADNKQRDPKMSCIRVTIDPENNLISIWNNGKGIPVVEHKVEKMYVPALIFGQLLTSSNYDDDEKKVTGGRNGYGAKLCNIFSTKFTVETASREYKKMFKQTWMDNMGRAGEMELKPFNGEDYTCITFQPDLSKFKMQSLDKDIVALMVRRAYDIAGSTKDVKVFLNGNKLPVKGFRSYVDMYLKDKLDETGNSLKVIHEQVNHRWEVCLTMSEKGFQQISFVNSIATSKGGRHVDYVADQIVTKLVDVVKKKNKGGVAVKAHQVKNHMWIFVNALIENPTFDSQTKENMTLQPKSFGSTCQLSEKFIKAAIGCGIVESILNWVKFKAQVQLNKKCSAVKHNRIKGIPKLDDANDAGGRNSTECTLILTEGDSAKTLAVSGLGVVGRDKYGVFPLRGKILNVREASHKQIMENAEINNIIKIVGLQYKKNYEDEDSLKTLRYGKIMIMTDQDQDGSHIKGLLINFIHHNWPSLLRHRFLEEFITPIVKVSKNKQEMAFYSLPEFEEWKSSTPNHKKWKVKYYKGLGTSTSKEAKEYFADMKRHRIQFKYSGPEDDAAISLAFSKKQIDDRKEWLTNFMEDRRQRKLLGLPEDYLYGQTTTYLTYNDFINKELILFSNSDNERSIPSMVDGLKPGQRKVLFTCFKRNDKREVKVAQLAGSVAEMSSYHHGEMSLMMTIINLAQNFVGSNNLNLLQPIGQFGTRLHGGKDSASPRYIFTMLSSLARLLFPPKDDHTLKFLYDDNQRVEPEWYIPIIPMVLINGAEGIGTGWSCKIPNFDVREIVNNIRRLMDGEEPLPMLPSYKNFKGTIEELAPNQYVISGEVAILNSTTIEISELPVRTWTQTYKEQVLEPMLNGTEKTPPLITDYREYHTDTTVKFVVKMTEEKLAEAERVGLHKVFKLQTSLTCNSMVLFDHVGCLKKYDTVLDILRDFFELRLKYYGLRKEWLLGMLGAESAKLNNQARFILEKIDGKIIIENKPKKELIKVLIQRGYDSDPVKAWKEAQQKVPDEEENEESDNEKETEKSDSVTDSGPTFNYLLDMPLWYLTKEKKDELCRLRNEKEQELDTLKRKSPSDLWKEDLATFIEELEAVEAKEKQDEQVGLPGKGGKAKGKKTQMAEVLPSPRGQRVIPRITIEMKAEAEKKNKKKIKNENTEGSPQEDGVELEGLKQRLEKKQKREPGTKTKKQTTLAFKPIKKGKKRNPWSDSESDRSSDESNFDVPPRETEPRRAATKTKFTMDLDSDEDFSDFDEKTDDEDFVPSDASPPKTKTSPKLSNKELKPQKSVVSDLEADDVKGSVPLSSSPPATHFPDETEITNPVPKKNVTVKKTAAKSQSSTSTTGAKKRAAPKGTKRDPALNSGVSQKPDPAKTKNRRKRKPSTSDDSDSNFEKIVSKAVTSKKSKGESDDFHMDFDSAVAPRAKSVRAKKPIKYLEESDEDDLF
Source text: (§1) The ability of Topo II to generate DNA damage in the presence of Topo II-targeting agents led to the hypothesis that an important determinant of drug sensitivity was related to the overall level of Topo II[17]. […] Such findings encouraged us to evaluate the effect of the isolates on Topo II activity. In order to confirm whether the DNA damage-induced by the isolated sesterterpenoids involved the inhibition of Topo II activity, a cell-free DNA cleavage assay using an enzyme-mediated negatively supercoiled pHOT1 plasmid DNA was applied. […] These marine terpenoids suppressed Topo II activity, resulting in the inhibition of supercoiled DNA relaxation in a dose-dependent manner (Fig. 5A). […] To determine whether the apoptotic mechanism of these compounds affects γH2AX (as a biomarker of DNA damage) induction, Western blot analysis was employed to examine the activation of γH2AX.
The assay was performed as described previously. […] Reactions were terminated by adding 2 μL of 10% SDS to facilitate trapping the enzyme in a cleavage complex, followed by the addition of 2.5 μL of proteinase K (50 μg/mL) to digest the bound protein (incubated at 37 °C for 15 min) and finally by adding 0.1 volume of the sample loading dye. The DNA products were analyzed via electrophoresis through vertical 2% agarose gels at 2 voltage/cm in 0.5 × TAE buffer. Gels were stained with ethidium bromide and photographed using an Eagle Eye II system (Stratagene, La Jolla, CA, USA). The quantitative analysis of the DNA Topo II activity was performed as described previously.

γH2AX in Molt 4 cells = experiment: Western blot of γH2AX (DNA damage biomarker); assay type: cell-based, human; settings: 0, 0.0625, 0.125 and 0.25 μg/mL, 24 h
Source text: as §1
Cell lysates were prepared by treating the cells for 30 min in RIPA lysis buffer, 1% Nonidet P-40, 0.5% sodium deoxycholate, 0.1% sodium dodecyl sulphate (SDS), 1 mM sodium orthovanadate, 100 μg/mL phenylmethylsulfonyl fluoride and 30 μg/mL aprotinin) (all chemicals were from Sigma)[38]. The lysates were centrifuged at 20,000 × g for 30 min, and the protein concentration in the supernatant was determined using a BCA protein assay kit (Pierce). Equal amounts of proteins were respectively separated by 7.5%, 10% or 12% of SDS-polyacrylamide gel electrophoresis and then were electrotransferred to a PVDF membrane. The membrane was blocked with a solution containing 5% non-fat dry milk TBST buffer (20 mM Tris-HCl, pH 7.4, 150 mM NaCl and 0.1% Tween 20) for 1 h and washed with TBST buffer. The protein expressions were monitored by immunoblotting using specific antibodies. These proteins were detected by an enhanced chemiluminescence kit (Pierce).

DLD-1 cells = experiment: MTT antiproliferative assay, colon cancer DLD-1 cells; settings: Homo sapiens, DLD-1, 72 h, read-out: IC50, cytotoxicity, Colon DLD-1
Source text: as §2, §3

HL 60 cells = experiment: MTT antiproliferative assay, leukemia HL 60 cells; settings: Homo sapiens, HL-60, 72 h, read-out: IC50, cytotoxicity, Leukemia HL 60
Source text: as §2, §3

Molt 4 cells [2] = experiment: MTT antiproliferative assay, leukemia Molt 4 cells; assay type: cell-based; settings: Homo sapiens
Ca9-22 cells = experiment: MTT antiproliferative assay, oral Ca9-22 cells; settings: Homo sapiens, Ca9-22, 72 h, read-out: IC50, cytotoxicity, Oral Ca9-22
Source text: as §2, §3

U937 cells = experiment: MTT antiproliferative assay, lymphoma U937 cells; settings: Homo sapiens, U-937, 72 h, read-out: IC50, cytotoxicity, Lymphoma U937
LNCaP cells = experiment: MTT antiproliferative assay, prostate cancer LNCaP cells; settings: Homo sapiens, 72 h
Source text: as §2, §3

Molt 4 cells [3] = experiment: MMP disruption, JC-1 staining flow cytometry; assay type: cell-based, human; settings: 0, 0.0625, 0.125 and 0.25 μg/mL, 24 h
Protocol: These assays were performed as described previously. […] In brief, the treated cells were labeled with a specific fluorescent dye for 30 min. After labeling, cells were washed with PBS and resuspended in PBS at a concentration of 1 × 10^6 cells/mL before analysis via flow cytometry.

K562 cells = experiment: MTT antiproliferative assay, leukemia K562 cells; settings: Homo sapiens, K562, 72 h, read-out: IC50, cytotoxicity, Leukemia K562
Source text: as §2, §3

[4] = tested on: human Molt 4 tumor xenograft; experiment: Human leukemia Molt 4 tumor xenograft animal model; assay type: in vivo, immunodeficient athymic mice
Source text: Compounds 1 and 2 induced apoptosis in several cancer cell lines; however, the amounts isolated were insufficient for further examination of their in vivo antitumor effect. On the other hand, the amount separated from 3 was sufficient to study the in vivo anti-tumor activity by evaluating its effect on tumor growth of human leukemia Molt 4 in xenograft animal model. Molt 4 (1 × 10^6) cells were inoculated subcutaneously at the right flank of female immunodeficient athymic mice. […] The average tumor size on day 33 in the control group was 404.63 mm^3, whereas the average tumor size in compound 3-treated group was 212.10 mm^3 (Fig. 6A).
Establishment of nude mice with xenografts was performed as described previously. Six-week-old […] immunodeficient athymic mice were purchased from the National Laboratory Animal and Research Center (Taipei, Taiwan). All of the animals were maintained under standard laboratory conditions (temperature 24–26 °C, 12–12 h dark-light circle) and fed with laboratory diet and water. This study was approved by the Animal Care and Treatment Committee of Kaohsiung Medical University (IACUC Permit Number 101136). All experiments were conducted in strict accordance with the recommendations in the Guide for the Care and Use of Laboratory Animals of the National Institutes of Health, and all efforts were made to minimize animal stress/distress. Molt 4 cells (1 × 10^6) resuspended in 0.2 mL PBS were injected s.c. into the right flank of each mouse, and tumor growth was monitored every day. Fourteen days after tumor cell injection, mice with confirmed tumor growth were randomly divided into two groups. Compound 3 (1.14 μg/g) was intraperitoneally administered to the treatment group, and the control group received solvent only. Compound 3 was administrated every other day for 33 days. Animals were sacrificed by carbon dioxide. Tumor size was measured three times a week using calipers and tumor volumes were calculated according to the standard formula: width^2 × length/2.

[5] = 72 h, read-out: IC50, cytotoxicity, Leukemia Molt 4
[6] = read-out: IC50, cytotoxicity, Prostate LNCaP (class symbol)

Row | inhibition at 0.08 µg/mL (human topoisomerase II) | inhibition at 0.312 µg/mL (human topoisomerase II) | inhibition at 1.25 µg/mL (human topoisomerase II) | inhibition at 5 µg/mL (human topoisomerase II) | inhibition at 20 µg/mL (human topoisomerase II) | Structure (SMILES) | apoptotic population of Molt 4 cells (Molt 4 cells [1]) | IC50 (Cal-27 cells) | IC50 (T-47D cells) | IC50 (Sup-T1 cells) | expression of γH2AX (γH2AX in Molt 4 cells) | IC50 (DLD-1 cells) | IC50 (HL 60 cells) | IC50 (Molt 4 cells [2]; [5]) | IC50 (Ca9-22 cells) | IC50 (U937 cells) | IC50 (LNCaP cells; [6]) | mitochondrial membrane potential (Molt 4 cells [3]) | IC50 (K562 cells) | also measured
1 | 12% | 23% | 36% | 90% | 99% | CC[C@@H](O)CC(=O)O[C@@H]1C[C@@H]2[C@@]3(C)CCC[C@](C)(CC)[C@@H]3CC[C@@]2(C)[C@@H]2CC=C(C(C)=O)[C@H](C=O)[C@@]12C (relative stereo) [Compound 2, 12β-(3′β-hydroxy-pentanoyloxy)-20,24-dimethyl-24-oxo-scalara-16-en-25-al] | increase in the apoptotic population | 3.17 µg/mL (≈ 6.16 µM) | 1.87 µg/mL (≈ 3.63 µM) | 0.42 µg/mL (≈ 0.816 µM) | significantly enhanced the expression of γH2AX in a dose-dependent manner | 1.71 µg/mL (≈ 3.32 µM) | 0.22 µg/mL (≈ 0.427 µM) | 0.3 µg/mL | 1.48 µg/mL (≈ 2.88 µM) | 0.61 µg/mL (≈ 1.19 µM) | > 20 µg/mL | disruption in mitochondrial membrane potential | 0.35 µg/mL (≈ 0.68 µM) | –
2 | 7% | 13% | 28% | 90% | 98% | CC(C)=CCC/C(C)=C/CC/C(C)=C/CC/C(C)=C/CC1=CC(=O)C=CC1=O [Compound 3, 2-tetraprenil-1,4-benzochinone] | increase in the apoptotic population | 0.51 µg/mL (≈ 1.34 µM) | 1.06 µg/mL (≈ 2.79 µM) | 0.33 µg/mL (≈ 0.867 µM) | activation of DNA damage was not observed | 15.4 µg/mL (≈ 40.5 µM) | 0.42 µg/mL (≈ 1.1 µM) | 0.34 µg/mL | 0.97 µg/mL (≈ 2.55 µM) | 0.65 µg/mL (≈ 1.71 µM) | > 20 µg/mL | disruption in mitochondrial membrane potential | 0.7 µg/mL (≈ 1.84 µM) | mice body weights versus control group ([4]; 1.14 μg/g intraperitoneal, 33 days): no significant difference; average tumor size on day 33 ([4]; 1.14 μg/g intraperitoneal, every other day, 33 days): 212.10 mm^3; suppression of the volume of xenograft tumor growth compared with the control ([4]; Molt 4 xenograft): 47.58%; IC50 (human topoisomerase II; cell-free system, read-out: IC50, inhibition of topo II activities (converted)): 1.13 µM
3 | – | – | – | – | – | C=CCNC1=C2C[C@@H](C)C[C@H](OC)[C@H](O)[C@@H](C)/C=C(\C)[C@H](OC(N)=O)[C@@H](OC)/C=C\C=C(/C)C(=O)NC(=CC1=O)C2=O [Compound 17-AAG, 17-allylamine-17-demethoxygeldanamycin, reference compound] | – | – | – | – | – | – | – | – | – | – | – | – | – | IC50 (Molt 4 cells [2]; 24 h, molar value in brackets, read-out: IC50, suppression in cell growth, Molt 4): 7.2 µM; IC50 (Molt 4 cells [2]; 24 h, read-out: IC50, suppression in cell growth, Molt 4): 4.2 µg/mL
4 | – | – | – | – | – | COc1cccc2c1C(=O)c1c(O)c3c(c(O)c1C2=O)C[C@@](O)(C(=O)CO)C[C@@H]3O[C@H]1C[C@H](N)[C@H](O)[C@H](C)O1 [Doxorubicin, reference compound] | – | 0.01 µg/mL (≈ 0.0184 µM) | 0.08 µg/mL (≈ 0.147 µM) | 0.02 µg/mL (≈ 0.0368 µM) | – | 1.28 µg/mL (≈ 2.35 µM) | 0.02 µg/mL (≈ 0.0368 µM) | 0.01 µg/mL | 0.05 µg/mL (≈ 0.092 µM) | 0.21 µg/mL (≈ 0.386 µM) | – | – | 0.2 µg/mL (≈ 0.368 µM) | IC50 (LNCaP cells; read-out: IC50, cytotoxicity, Prostate LNCaP): 2.47 µg/mL (≈ 4.54 µM)
5 | – | – | – | – | – | COc1cc([C@@H]2c3cc4c(cc3[C@@H](O[C@@H]3O[C@@H]5CO[C@@H](C)O[C@H]5[C@H](O)[C@H]3O)[C@H]3COC(=O)[C@H]23)OCO4)cc(OC)c1O [etoposide, reference compound] | – | – | – | – | – | – | – | – | – | – | – | – | – | DNA product with topo II poison (human topoisomerase II; 500 μM, positive control, Lane 16): linear DNA strand was observed
